{"source": "PubChem BioAssay AID2060500", "about": "(Molecular Pharmacology Branch, DTP, NCI, 2025)", "tested_on": "596521-263-R-J1-PDC complex spheroids, viability % of control", "test": "Anticancer human tumor 596521-263-R-J1-PDC patient-derived soft tissue sarcoma cell line growth inhibition [GQUAD]", "settings": "for IC50: curve of first compound; for viability, T/C: stronger effect = lower value", "method_in_brief": "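Viability of tumor cells grown as complex spheroids with endothelial and stromal cells, exposed to drug combinations. Top concentration at or near clinical Cmax (else 10 microM), diluted in half-log increments.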", "key": {"[1]": {"settings": "second compound 0.0316 µM, first compound 0.0316 µM"}, "[2]": {"settings": "second compound 0.0316 µM, first compound 0.1 µM"}, "[3]": {"settings": "second compound 0.0316 µM, first compound 0.316 µM"}, "[4]": {"settings": "second compound 0.0316 µM, first compound 1 µM"}, "[5]": {"settings": "second compound 0.0316 µM, first compound 3.16 µM"}, "[6]": {"settings": "second compound 0.0316 µM, first compound 10 µM"}, "[7]": {"settings": "second compound 0.1 µM, first compound 0.0316 µM"}, "[8]": {"settings": "second compound 0.1 µM, first compound 0.1 µM"}, "[9]": {"settings": "second compound 0.1 µM, first compound 0.316 µM"}, "[10]": {"settings": "second compound 0.1 µM, first compound 1 µM"}, "[11]": {"settings": "second compound 0.1 µM, first compound 3.16 µM"}, "[12]": {"settings": "second compound 0.1 µM, first compound 10 µM"}, "[13]": {"settings": "second compound 0.316 µM, first compound 0.0316 µM"}, "[14]": {"settings": "second compound 0.316 µM, first compound 0.1 µM"}, "[15]": {"settings": "second compound 0.316 µM, first compound 0.316 µM"}, "[16]": {"settings": "second compound 0.316 µM, first compound 1 µM"}, "[17]": {"settings": "second compound 0.316 µM, first compound 3.16 µM"}, "[18]": {"settings": "second compound 0.316 µM, first compound 10 µM"}, "[19]": {"settings": "second compound 1 µM, first compound 0.0316 µM"}, "[20]": {"settings": "second compound 1 µM, first compound 0.1 µM"}, "[21]": {"settings": "second compound 1 µM, first compound 0.316 µM"}, "[22]": {"settings": "second compound 1 µM, first compound 1 µM"}, "[23]": {"settings": "second compound 1 µM, first compound 3.16 µM"}, "[24]": {"settings": "second compound 1 µM, first compound 10 µM"}, "[25]": {"settings": "second compound 3.16 µM, first compound 0.0316 µM"}, "[26]": {"settings": "second compound 3.16 µM, first compound 0.1 µM"}, "[27]": {"settings": "second compound 3.16 µM, first compound 0.316 µM"}, "[28]": {"settings": "second compound 3.16 µM, first compound 1 µM"}, "[29]": {"settings": "second compound 3.16 µM, first compound 3.16 µM"}, "[30]": {"settings": "second compound 3.16 µM, first compound 10 µM"}, "[31]": {"settings": "second compound 10 µM, first compound 0.0316 µM"}, "[32]": {"settings": "second compound 10 µM, first compound 0.1 µM"}, "[33]": {"settings": "second compound 10 µM, first compound 0.316 µM"}, "[34]": {"settings": "second compound 10 µM, first compound 1 µM"}, "[35]": {"settings": "second compound 10 µM, first compound 3.16 µM"}, "[36]": {"settings": "second compound 10 µM, first compound 10 µM"}}, "data": [{"compound": "CCCS(=O)(=O)Nc1ccc(F)c(C(=O)c2c[nH]c3ncc(-c4ccc(Cl)cc4)cc23)c1F", "note": "+ CN(C)c1ccc(Nc2c3ccc(NC(=O)CCN4CCCC4)cc3nc3cc(NC(=O)CCN4CCCC4)ccc23)cc1;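 further: spheroids exposed to drugs for 7 days before viability reading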;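 on viability, T/C: 100% = DMSO vehicle control viability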", "values": [{"measurement": "IC50", "setting": "second compound 0.0316 µM", "value": 5180, "unit": "nM"}, {"measurement": "IC50", "setting": "second compound 0.1 µM", "value": 5510, "unit": "nM"}, {"measurement": "IC50", "setting": "second compound 0.316 µM", "value": 5600, "unit": "nM"}, {"measurement": "IC50", "setting": "second compound 1 µM", "value": 6650, "unit": "nM"}, {"measurement": "IC50", "setting": "second compound 3.16 µM", "value": 5010, "unit": "nM"}, {"measurement": "IC50", "setting": "second compound 10 µM", "value": 1820, "unit": "nM"}, {"measurement": "viability, T/C", "setting": "[1]", "value": 94.7, "unit": "%"}, {"measurement": "viability, T/C", "setting": "[2]", "value": 83.9, "unit": "%"}, {"measurement": "viability, T/C", "setting": "[3]", "value": 95.3, "unit": "%"}, {"measurement": "viability, T/C", "setting": "[4]", "value": 82.1, "unit": "%"}, {"measurement": "viability, T/C", "setting": "[5]", "value": 65.8, "unit": "%"}, {"measurement": "viability, T/C", "setting": "[6]", "value": 29.4, "unit": "%"}, {"measurement": "viability, T/C", "setting": "[7]", "value": 101, "unit": "%"}, {"measurement": "viability, T/C", "setting": "[8]", "value": 88.9, "unit": "%"}, {"measurement": "viability, T/C", "setting": "[9]", "value": 104, "unit": "%"}, {"measurement": "viability, T/C", "setting": "[10]", "value": 83, "unit": "%"}, {"measurement": "viability, T/C", "setting": "[11]", "value": 69.8, "unit": "%"}, {"measurement": "viability, T/C", "setting": "[12]", "value": 29.9, "unit": "%"}, {"measurement": "viability, T/C", "setting": "[13]", "value": 94.4, "unit": "%"}, {"measurement": "viability, T/C", "setting": "[14]", "value": 93.8, "unit": "%"}, {"measurement": "viability, T/C", "setting": "[15]", "value": 89.4, "unit": "%"}, {"measurement": "viability, T/C", "setting": "[16]", "value": 80, "unit": "%"}, {"measurement": "viability, T/C", "setting": "[17]", "value": 65.9, "unit": "%"}, {"measurement": "viability, T/C", "setting": "[18]", "value": 34.4, "unit": "%"}, {"measurement": "viability, T/C", "setting": "[19]", "value": 98.5, "unit": "%"}, {"measurement": "viability, T/C", "setting": "[20]", "value": 97.7, "unit": "%"}, {"measurement": "viability, T/C", "setting": "[21]", "value": 85.8, "unit": "%"}, {"measurement": "viability, T/C", "setting": "[22]", "value": 84.1, "unit": "%"}, {"measurement": "viability, T/C", "setting": "[23]", "value": 71, "unit": "%"}, {"measurement": "viability, T/C", "setting": "[24]", "value": 39.1, "unit": "%"}, {"measurement": "viability, T/C", "setting": "[25]", "value": 93.2, "unit": "%"}, {"measurement": "viability, T/C", "setting": "[26]", "value": 91.7, "unit": "%"}, {"measurement": "viability, T/C", "setting": "[27]", "value": 94, "unit": "%"}, {"measurement": "viability, T/C", "setting": "[28]", "value": 84.3, "unit": "%"}, {"measurement": "viability, T/C", "setting": "[29]", "value": 56.9, "unit": "%"}, {"measurement": "viability, T/C", "setting": "[30]", "value": 39.8, "unit": "%"}, {"measurement": "viability, T/C", "setting": "[31]", "value": 62.9, "unit": "%"}, {"measurement": "viability, T/C", "setting": "[32]", "value": 60.5, "unit": "%"}, {"measurement": "viability, T/C", "setting": "[33]", "value": 56.9, "unit": "%"}, {"measurement": "viability, T/C", "setting": "[34]", "value": 57.3, "unit": "%"}, {"measurement": "viability, T/C", "setting": "[35]", "value": 44.5, "unit": "%"}, {"measurement": "viability, T/C", "setting": "[36]", "value": 30.1, "unit": "%"}]}, {"compound": "O=C(NO)c1cnc(N2CCN(S(=O)(=O)c3ccc4ccccc4c3)CC2)nc1", "note": "+ Cc1cnc(CNC(=O)c2c(=O)c3ccc(N4CCCN(C)CC4)nc3n3c2sc2ccccc23)cn1", "values": [{"measurement": "IC50", "setting": "second compound 0.0316 µM", "value": 111, "unit": "nM"}, {"measurement": "IC50", "setting": "second compound 0.1 µM", "value": 102, "unit": "nM"}, {"measurement": "IC50", "setting": "second compound 0.316 µM", "value": 110, "unit": "nM"}, {"measurement": "IC50", "setting": "second compound 1 µM", "value": 104, "unit": "nM"}, {"measurement": "IC50", "setting": "second compound 3.16 µM", "value": "< 31.6", "unit": "nM"}, {"measurement": "IC50", "setting": "second compound 10 µM", "value": "< 31.6", "unit": "nM"}, {"measurement": "viability, T/C", "setting": "[1]", "value": 74.7, "unit": "%"}, {"measurement": "viability, T/C", "setting": "[2]", "value": 53.5, "unit": "%"}, {"measurement": "viability, T/C", "setting": "[3]", "value": 13, "unit": "%"}, {"measurement": "viability, T/C", "setting": "[4]", "value": 0.6, "unit": "%"}, {"measurement": "viability, T/C", "setting": "[5]", "value": 0.3, "unit": "%"}, {"measurement": "viability, T/C", "setting": "[6]", "value": 0.28, "unit": "%"}, {"measurement": "viability, T/C", "setting": "[7]", "value": 71.5, "unit": "%"}, {"measurement": "viability, T/C", "setting": "[8]", "value": 50.3, "unit": "%"}, {"measurement": "viability, T/C", "setting": "[9]", "value": 17.4, "unit": "%"}, {"measurement": "viability, T/C", "setting": "[10]", "value": 0.78, "unit": "%"}, {"measurement": "viability, T/C", "setting": "[11]", "value": 0.32, "unit": "%"}, {"measurement": "viability, T/C", "setting": "[12]", "value": 0.29, "unit": "%"}, {"measurement": "viability, T/C", "setting": "[13]", "value": 66.5, "unit": "%"}, {"measurement": "viability, T/C", "setting": "[14]", "value": 52.4, "unit": "%"}, {"measurement": "viability, T/C", "setting": "[15]", "value": 19.1, "unit": "%"}, {"measurement": "viability, T/C", "setting": "[16]", "value": 0.46, "unit": "%"}, {"measurement": "viability, T/C", "setting": "[17]", "value": 0.21, "unit": "%"}, {"measurement": "viability, T/C", "setting": "[18]", "value": 0.18, "unit": "%"}, {"measurement": "viability, T/C", "setting": "[19]", "value": 53.9, "unit": "%"}, {"measurement": "viability, T/C", "setting": "[20]", "value": 50.6, "unit": "%"}, {"measurement": "viability, T/C", "setting": "[21]", "value": 19.6, "unit": "%"}, {"measurement": "viability, T/C", "setting": "[22]", "value": 0.17, "unit": "%"}, {"measurement": "viability, T/C", "setting": "[23]", "value": 0.77, "unit": "%"}, {"measurement": "viability, T/C", "setting": "[24]", "value": 1.29, "unit": "%"}, {"measurement": "viability, T/C", "setting": "[25]", "value": 48.6, "unit": "%"}, {"measurement": "viability, T/C", "setting": "[26]", "value": 42.5, "unit": "%"}, {"measurement": "viability, T/C", "setting": "[27]", "value": 16.1, "unit": "%"}, {"measurement": "viability, T/C", "setting": "[28]", "value": 0.13, "unit": "%"}, {"measurement": "viability, T/C", "setting": "[29]", "value": 0.4, "unit": "%"}, {"measurement": "viability, T/C", "setting": "[30]", "value": 0.75, "unit": "%"}, {"measurement": "viability, T/C", "setting": "[31]", "value": 23.6, "unit": "%"}, {"measurement": "viability, T/C", "setting": "[32]", "value": 13.2, "unit": "%"}, {"measurement": "viability, T/C", "setting": "[33]", "value": 0.25, "unit": "%"}, {"measurement": "viability, T/C", "setting": "[34]", "value": 0.16, "unit": "%"}, {"measurement": "viability, T/C", "setting": "[35]", "value": 0.89, "unit": "%"}, {"measurement": "viability, T/C", "setting": "[36]", "value": 0.27, "unit": "%"}]}]}
